“And” between values parts separate entries of the source, which are not always exact repeats. Equal entries are not always repeated.
How the values were obtained:
[1] = Core body temperature of obese rats (implanted logger); type: in vivo, rat; settings: for temperature after administration: hight-fat diet, 5mg/kg, individual rats 1-6
Procedure: Animals with induced obesity (two more groups) were subcutaneously implanted with a DST micro-HRT heart rate logger (Star-Oddi, Island), which simultaneously measured long-term core temperature. Under general anesthesia (thiopental, 70 mg/kg, ip), the loggers were inserted under the skin in the groin area and sutured with a surgical thread. Forty-eight hours later, the baseline temperature was measured, and at 9:30 AM, 4-OH-Guanabenz was administered ip at a dose of 5 mg/kg b.w. The first measurement was recorded 30 min after the administration of the test compound, and then, the temperature was recorded every hour. After 24 h, the loggers were removed, the temperature data were read, and Mercury software (Star-Oddi Mercury Data Logger PC Software, Iceland) was used to collect and analyze the information obtained. Using this technology, measurements are made without the direct intervention of the researcher; therefore, there is no disturbance in the readings evoked by stress in the animals.

[2] = Body weight of non-obese rats fed a standard diet; type: in vivo, rat; settings: for body weight of rat in g in particular day: standard diet, 5 mg/kg
Procedure: Male Wistar rats (190–220 g) were housed in pairs. The control group (standard diet + vehicle) received vehicle (water, ip), while the test group (standard diet + 4-OH-Guanabenz) was injected (ip) with 4-OH-Guanabenz at a dose of 5 mg/kg b.w. dissolved in water. Body weights were measured daily immediately prior to drug administration.

α2B-adrenoceptor = target: T1, α2B-adrenoceptor (Homo sapiens, UniProt P18089); assay: Intrinsic activity, AequoScreen aequorin calcium mobilization; type: cell-based
T1 sequence (P18089 1-450): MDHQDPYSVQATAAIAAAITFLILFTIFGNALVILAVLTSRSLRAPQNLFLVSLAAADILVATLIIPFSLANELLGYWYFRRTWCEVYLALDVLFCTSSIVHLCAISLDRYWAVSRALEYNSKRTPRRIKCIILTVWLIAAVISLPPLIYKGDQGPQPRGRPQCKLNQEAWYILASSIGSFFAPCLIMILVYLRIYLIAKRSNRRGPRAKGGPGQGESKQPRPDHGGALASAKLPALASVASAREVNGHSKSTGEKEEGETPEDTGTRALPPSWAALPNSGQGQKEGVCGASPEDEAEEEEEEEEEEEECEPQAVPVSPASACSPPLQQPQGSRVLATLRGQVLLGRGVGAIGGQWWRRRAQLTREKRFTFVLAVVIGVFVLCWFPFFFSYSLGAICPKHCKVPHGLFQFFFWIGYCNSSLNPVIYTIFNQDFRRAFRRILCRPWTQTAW
Procedure: The intrinsic activity at α2B-adrenoceptor was evaluated by luminescence detection of calcium mobilization using the recombinant expressed jellyfish photoprotein, aequorin.
Measurements were performed with the α2B-adrenergic AequoScreen cell line (PekinElmer cat. no. ES-031-AF). Cell density, in 96-well format measurements, was 5000 cells per well. […] Compound concentration series (50 μL/well) were diluted in 0.1% BSA (Intergen, cat. no. 3440–75) containing assay buffer (D-MEM/F-12, Invitrogen cat. no. 11039) and prepared in white ½ Area Plate—96-well microplates (PerkinElmer, cat. no. 6005560). The cell suspension was dispersed on the ligands using POLARstar optima reader injectors (BMG Labtech, Germany).
The concentration and dilution series having four replicates were prepared as instructed in the AequoScreen Starter Kit Manual. Cells were injected into wells with standard agonist or tested compounds using the POLARstar optima reader (BMG Labtech, Germany), and emitted light was recorded for 20 s. For the antagonist assay, cells were injected (50 μL) into the assay plate with antagonists (50 μL).

[3] = Plasma glucose, triglyceride and total cholesterol of obese rats; type: in vivo, rat; settings: for plasma glucose concentration / plasma total cholesterol concentration / plasma triglyceride concentration: high-fat diet, single rats 1-6
Procedure: On the 26th day of the experiment, 20 min after ip administration of heparin (5000 IU/rat) and thiopental (70 mg/kg b.w.), plasma was collected from the left carotid artery and then centrifuged at 600 × g (15 min, 4 °C) to obtain the plasma.
To determine the glucose, triglyceride, or cholesterol level in plasma, standard enzyme and spectrophotometric tests (Biomaxima S.A. Lublin, Poland) were used. The substrate was decomposed with enzymes appropriate for the relevant product, which was converted to a colored compound. The colouration was proportional to the concentration. The absorbance was measured at a wavelength of 500 nm.

In the case of Cl.N=C(N)NN=Cc1c(Cl)cc(O)cc1Cl [4-OH-Guanabenz, 2-[(2,6-Dichloro-4-hydroxyphenyl)methylene]hydrazinecarboximidamide Hydrochloride], the temperature after administration ([1]; hour 1) is reported as 37.56 ⚬C and 36.75 ⚬C and 37.32 ⚬C and 36.19 ⚬C and 36.67 ⚬C and 36.9 ⚬C, the temperature after administration ([1]; hour 2) is reported as 36.89 ⚬C and 36.98 ⚬C and 36.3 ⚬C (2×) and 37.12 ⚬C and 35.67 ⚬C and the temperature after administration ([1]; hour 3) is reported as 36.21 ⚬C and 36.64 ⚬C and 36.08 ⚬C and 35.74 ⚬C and 36.23 ⚬C and 35.01 ⚬C. For the same molecule, the temperature after administration ([1]; hour 4) was 36.66 ⚬C and 36.98 ⚬C and 36.64 ⚬C and 35.41 ⚬C and 35.89 ⚬C and 36.48 ⚬C, the temperature after administration ([1]; hour 5) was 37 ⚬C and 36.98 ⚬C and 36.95 ⚬C and 36.08 ⚬C and 36.45 ⚬C and 36.9 ⚬C and the temperature after administration ([1]; hour 6) was 37.34 ⚬C and 36.75 ⚬C and 36.87 ⚬C and 36.44 ⚬C and 36.59 ⚬C and 36.9 ⚬C. The temperature after administration ([1]; hour 7) was 36.77 ⚬C and 36.64 ⚬C (2×) and 36.19 ⚬C and 36.78 ⚬C and 36.45 ⚬C, the temperature after administration ([1]; hour 8) was 37 ⚬C and 36.53 ⚬C and 36.75 ⚬C and 36.42 ⚬C and 36.67 ⚬C and 36.78 ⚬C and the temperature after administration ([1]; hour 9) was 37.34 ⚬C and 36.42 ⚬C and 36.64 ⚬C and 36.98 ⚬C and 36.78 ⚬C and 36.67 ⚬C. The temperature after administration ([1]; hour 10) was 37.34 ⚬C and 36.5 ⚬C and 36.87 ⚬C and 36.53 ⚬C and 36.67 ⚬C and 37.01 ⚬C, the temperature after administration ([1]; hour 11) was 37 ⚬C and 36.64 ⚬C and 36.08 ⚬C and 37.09 ⚬C and 36.67 ⚬C and 36.56 ⚬C and the temperature after administration ([1]; hour 12) was 37 ⚬C and 36.53 ⚬C (2×) and 36.87 ⚬C and 36.56 ⚬C and 37.35 ⚬C. For the same molecule, the temperature after administration ([1]; hour 13) was 37.22 ⚬C and 37.09 ⚬C and 36.75 ⚬C and 36.64 ⚬C and 36.56 ⚬C and 36.67 ⚬C, the temperature after administration ([1]; hour 14) was 37.34 ⚬C and 36.42 ⚬C (3×) and 36.78 ⚬C and 37.12 ⚬C and the temperature after administration ([1]; hour 15) was 37.34 ⚬C and 36.53 ⚬C (2×) and 36.08 ⚬C and 36.56 ⚬C and 36.45 ⚬C. For the same molecule, the temperature after administration ([1]; hour 16) was 37.34 ⚬C and 37.09 ⚬C and 36.64 ⚬C and 35.97 ⚬C and 36.34 ⚬C and 36.56 ⚬C, the temperature after administration ([1]; hour 17) was 37 ⚬C and 37.09 ⚬C and 36.53 ⚬C and 36.67 ⚬C and 36.45 ⚬C and 37.23 ⚬C and the temperature after administration ([1]; hour 18) was 37.45 ⚬C and 36.53 ⚬C and 36.3 ⚬C and 37.21 ⚬C and 36.56 ⚬C and 36.34 ⚬C. For the same molecule, the temperature after administration ([1]; hour 19) was 36.6 ⚬C and 36.75 ⚬C and 36.53 ⚬C and 36.3 ⚬C and 36.67 ⚬C (2×), the temperature after administration ([1]; hour 20) was 37.22 ⚬C and 37.32 ⚬C and 36.19 ⚬C and 35.97 ⚬C and 36.56 ⚬C and 36.23 ⚬C and the temperature after administration ([1]; hour 21) was 37.45 ⚬C and 36.08 ⚬C (2×) and 36.19 ⚬C and 36.78 ⚬C and 36.12 ⚬C. For the same molecule, the temperature after administration ([1]; hour 22) was 36.77 ⚬C and 36.3 ⚬C and 35.86 ⚬C and 36.08 ⚬C and 36.45 ⚬C and 36.12 ⚬C, the temperature after administration ([1]; hour 23) was 36.89 ⚬C and 36.3 ⚬C and 36.19 ⚬C and 36.53 ⚬C and 36.34 ⚬C and 36.23 ⚬C and the temperature after administration ([1]; hour 24) was 36.66 ⚬C and 36.64 ⚬C and 36.3 ⚬C and 36.19 ⚬C and 36.78 ⚬C and 35.89 ⚬C. The “effect on core temperature (in words)” value ([1]; obese rats, 5 mg/kg b.w. ip, vs obese control) was “No significant effects on core temperature”, the “effect on body weight (in words)” value ([2]; rats fed standard diet, 5 mg/kg b.w. ip) was “No significant effects on body weight” and the “body weight of rat in g in particular day” value (shortened to “body weight of rat in g”) ([2]; day 1, individual rats) was 206 g and 214 g and 229 g and 239 g. The “body weight of rat in g” value ([2]; day 2, individual rats) was 206 g and 217 g and 231 g and 242 g, the “body weight of rat in g” value ([2]; day 3, individual rats) was 203 g and 214 g and 223 g and 240 g and the “body weight of rat in g” value ([2]; day 4, individual rats) was 207 g and 216 g and 230 g and 238 g. The “body weight of rat in g” value ([2]; day 5, individual rats) was 210 g and 220 g and 230 g and 241 g, the “body weight of rat in g” value ([2]; day 6, individual rats) was 212 g and 222 g and 230 g and 241 g and the “body weight of rat in g” value ([2]; day 7, individual rats) was 212 g and 218 g and 231 g and 244 g. The “body weight of rat in g” value ([2]; day 8, individual rats) was 214 g and 212 g and 227 g and 240 g, the “body weight of rat in g” value ([2]; day 9, individual rats) was 210 g (2×) and 222 g and 237 g and the “body weight of rat in g” value ([2]; day 10, individual rats) was 212 g and 215 g and 225 g and 240 g. For the same molecule, the “body weight of rat in g” value ([2]; day 11, individual rats) was 213 g and 214 g and 222 g and 239 g, the “body weight of rat in g” value ([2]; day 12, individual rats) was 211 g and 213 g and 224 g and 241 g and the “body weight of rat in g” value ([2]; day 13, individual rats) was 214 g and 212 g and 225 g and 242 g. For the same molecule, the “body weight of rat in g” value ([2]; day 14, individual rats) was 215 g and 211 g and 225 g and 239 g, the “body weight of rat in g” value ([2]; day 15, individual rats) was 217 g and 211 g and 224 g and 242 g and the “body weight of rat in g” value ([2]; day 16, individual rats) was 217 g and 213 g and 225 g and 242 g. The “body weight of rat in g” value ([2]; day 17, individual rats) was 218 g and 212 g and 226 g and 243 g, the “body weight of rat in g” value ([2]; day 18, individual rats) was 218 g and 214 g and 227 g and 243 g and the “body weight of rat in g” value ([2]; day 19, individual rats) was 219 g and 214 g and 227 g and 244 g. For the same molecule, the “body weight of rat in g” value ([2]; day 20, individual rats) was 220 g and 215 g and 228 g and 244 g, the “body weight of rat in g” value ([2]; day 21, individual rats) was 220 g and 216 g and 228 g and 245 g and the “body weight of rat in g” value ([2]; day 22, individual rats) was 221 g and 216 g and 229 g and 245 g. The “body weight of rat in g” value ([2]; day 23, individual rats) was 221 g and 217 g and 229 g and 246 g, the “body weight of rat in g” value ([2]; day 24, individual rats) was 220 g and 217 g and 230 g and 246 g and the “body weight of rat in g” value ([2]; day 25, individual rats) was 221 g and 218 g and 230 g and 247 g. The EC50 (α2B-adrenoceptor) was 330 nM, the “Intrinsic activity at α2B-adrenoceptor (in words)” value (α2B-adrenoceptor) was “antagonist activity” and the “effect on plasma total cholesterol (in words)” value ([3]; high-fat diet rats, 5 mg/kg b.w.) was “highest plasma level of total cholesterol”. For the same molecule, the “effect on plasma triglyceride level (in words)” value ([3]; high-fat diet rats, 5 mg/kg b.w., vs obese control) was “significantly decreased plasma triglyceride levels”, the plasma glucose concentration ([3]; 2mg/kg) was 4.77 mmol/L and 5.43 mmol/L and 6.06 mmol/L and 5.37 mmol/L and 5.51 mmol/L and the “plasma total cholesterol concentration” value ([3]; 2mg/kg) was 0.86 mmol/L and 0.71 mmol/L and 0.87 mmol/L and 0.75 mmol/L and 0.78 mmol/L and 0.93 mmol/L. For the same molecule, the plasma triglyceride concentration ([3]; 2mg/kg) was 0.17 mmol/L and 0.12 mmol/L and 0.21 mmol/L and 0.13 mmol/L and 0.14 mmol/L, the plasma glucose concentration ([3]; 5mg/kg) was 4.45 mmol/L and 5.37 mmol/L and 4.63 mmol/L and 5.39 mmol/L and 3.28 mmol/L and 4.68 mmol/L and the “plasma total cholesterol concentration” value ([3]; 5mg/kg) was 0.93 mmol/L and 0.87 mmol/L and 0.8 mmol/L and 1.08 mmol/L and 0.88 mmol/L and 0.84 mmol/L. The plasma triglyceride concentration ([3]; 5mg/kg) was 0.12 mmol/L and 0.2 mmol/L and 0.1 mmol/L and 0.13 mmol/L and 0.18 mmol/L and the “effect on blood glucose level (in words)” value ([3]; obese rats, both doses (2 or 5 mg/kg b.w.), vs obese animals treated with water) was “significantly lower blood glucose levels”.

From paper PMC10539439 (Pharmacological Reports, 2023)
